The text below walks through data of ChEMBL document CHEMBL5126614 (ACS Med Chem Lett, 2022).

One test is filed under the species Macaca mulatta. Kind of test: Selectivity ratio of EC50 for rhesus monkey GCGR to EC50 for rhesus monkey GLP1R.
The target of the next test is Glucagon receptor (Homo sapiens, UniProt P47871). Kind of test: Agonist activity at human GCGR expressed in frozen cells assessed as increase in cAMP production measured after 1 hr by HitHunter luminescence assay. It is filed as functional, cell-based.
The species named for another test is Homo sapiens. Kind of test: Selectivity ratio of EC50 for human GCGR expressed in frozen cells to EC50 for human GLP1R expressed in frozen cells. In kind it is cell-based.
Test [1] can be described thus: Agonist activity at rhesus monkey GCGR. On the set-up: species or system Macaca mulatta.
A short description of test [2]: Agonist activity at rhesus monkey GLP1R. Further details: species or system Macaca mulatta.
Test [3] concerns the target Glucagon-like peptide 1 receptor (Homo sapiens, UniProt P43220). Kind of test: Agonist activity at human GLP1R expressed in frozen cells assessed as increase in cAMP production measured after 1 hr by HitHunter luminescence assay. It is filed as functional, cell-based.

Chain of Glucagon receptor (P47871 whole entry): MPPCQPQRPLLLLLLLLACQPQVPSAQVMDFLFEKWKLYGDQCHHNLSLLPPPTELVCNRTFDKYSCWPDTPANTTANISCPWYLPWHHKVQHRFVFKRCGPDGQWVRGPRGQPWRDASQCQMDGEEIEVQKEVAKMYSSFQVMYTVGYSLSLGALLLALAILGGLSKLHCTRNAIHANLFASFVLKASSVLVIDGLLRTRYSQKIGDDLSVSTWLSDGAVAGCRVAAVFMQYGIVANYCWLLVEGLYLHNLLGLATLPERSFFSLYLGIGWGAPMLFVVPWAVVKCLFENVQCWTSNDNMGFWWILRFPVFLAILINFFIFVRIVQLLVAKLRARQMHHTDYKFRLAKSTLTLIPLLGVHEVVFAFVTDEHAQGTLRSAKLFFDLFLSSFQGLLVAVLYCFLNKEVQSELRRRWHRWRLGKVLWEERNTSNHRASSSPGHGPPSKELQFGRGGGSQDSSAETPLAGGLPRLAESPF
Chain of Glucagon-like peptide 1 receptor (P43220 whole entry): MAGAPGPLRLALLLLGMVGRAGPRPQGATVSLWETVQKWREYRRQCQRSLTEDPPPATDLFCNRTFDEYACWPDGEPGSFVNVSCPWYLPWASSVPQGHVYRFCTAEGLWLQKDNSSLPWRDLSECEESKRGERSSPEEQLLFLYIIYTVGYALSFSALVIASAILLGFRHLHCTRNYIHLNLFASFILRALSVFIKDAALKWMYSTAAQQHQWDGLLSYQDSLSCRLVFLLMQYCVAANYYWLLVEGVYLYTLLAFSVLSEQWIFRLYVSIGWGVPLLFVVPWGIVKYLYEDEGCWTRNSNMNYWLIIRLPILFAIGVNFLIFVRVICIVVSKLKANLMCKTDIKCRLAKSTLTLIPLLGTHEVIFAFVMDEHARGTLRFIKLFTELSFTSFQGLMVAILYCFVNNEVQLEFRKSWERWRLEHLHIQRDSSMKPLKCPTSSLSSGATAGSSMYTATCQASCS

Consider `CCCCCCCCCCCCCCCC(=O)N[C@@H](CCC(=O)N[C@@H](CCC(=O)NCCCC[C@H](NC(=O)[C@H](CC(=O)O)NC(=O)[C@H](CO)NC(=O)[C@@H](NC(=O)[C@H](Cc1ccccc1)NC(=O)[C@@H](NC(=O)CNC(=O)[C@H](CCC(N)=O)NC(=O)[C@@H](CO)NC(=O)[C@@H](N)Cc1cnc[nH]1)[C@@H](C)O)[C@@H](C)O)C(=O)N[C@@H](CO)C(=O)N[C@@H](CCCCN)C(=O)N[C@@H](Cc1ccc(O)cc1)C(=O)N[C@@H](CC(C)C)C(=O)N[C@@H](CC(=O)O)C(=O)N[C@H](C(=O)N[C@@H](CCCNC(=N)N)C(=O)N[C@@H](C)C(=O)N[C@@H](C)C(=O)N[C@@H](CCC(N)=O)C(=O)N[C@@H](CC(=O)O)C(=O)N[C@@H](Cc1ccccc1)C(=O)N[C@H](C(=O)N[C@@H](CCC(N)=O)C(=O)N[C@@H](Cc1c[nH]c2ccccc12)C(=O)N[C@@H](CC(C)C)C(=O)N[C@@H](CC(C)C)C(=O)N[C@@H](CC(=O)O)C(=O)N[C@H](C(N)=O)[C@@H](C)O)C(C)C)C(C)C)C(=O)O)C(=O)O`, for which the figures for the Ratio EC50 in the test listed under Macaca mulatta and in the test filed under Homo sapiens were 0.9 and 0.5, respectively. Also, the EC50 was 0.062 nM on Glucagon receptor, 0.018 nM in test [1] and 0.021 nM in test [2].

As to `CCCCCCCCCCCCCCCC(=O)N[C@@H](CCC(=O)N[C@@H](CCC(=O)NCCCC[C@H](NC(=O)[C@H](CC(=O)O)NC(=O)[C@H](CO)NC(=O)[C@@H](NC(=O)[C@H](Cc1ccccc1)NC(=O)[C@@H](NC(=O)CNC(=O)[C@H](CCC(N)=O)NC(=O)C(C)(C)NC(=O)[C@@H](N)Cc1cnc[nH]1)[C@@H](C)O)[C@@H](C)O)C(=O)N[C@@H](CO)C(=O)N[C@@H](CCCCN)C(=O)N[C@@H](Cc1ccc(O)cc1)C(=O)N[C@@H](CC(C)C)C(=O)N[C@@H](CC(=O)O)C(=O)NC(C)(C)C(=O)N[C@@H](CCCNC(=N)N)C(=O)N[C@@H](C)C(=O)N[C@@H](C)C(=O)N[C@@H](CCC(N)=O)C(=O)N[C@@H](CC(=O)O)C(=O)N[C@@H](Cc1ccccc1)C(=O)N[C@H](C(=O)N[C@@H](CCC(N)=O)C(=O)N[C@@H](Cc1c[nH]c2ccccc12)C(=O)N[C@@H](CC(C)C)C(=O)N[C@@H](CCSC)C(=O)N[C@@H](CC(=O)O)C(=O)N[C@H](C(=O)N[C@@H](CCCCNC(=O)CC[C@H](N)C(=O)O)C(N)=O)[C@@H](C)O)C(C)C)C(=O)O)C(=O)O`, the Ratio EC50 in the test filed under Macaca mulatta was 9.1; in the test listed under Homo sapiens it was 2.1. Further, the EC50 on Glucagon receptor stood at 0.048 nM; in test [3] it was 0.022 nM; in test [1], 0.064 nM; in test [2], 0.007 nM.

Take `CCCCCCCCCCCCCCCC(=O)N[C@@H](CCC(=O)N[C@@H](CCC(=O)NCCCC[C@H](NC(=O)[C@H](CC(=O)O)NC(=O)[C@H](CO)NC(=O)[C@@H](NC(=O)[C@H](Cc1ccccc1)NC(=O)[C@@H](NC(=O)CNC(=O)[C@H](CCC(N)=O)NC(=O)C(C)(C)NC(=O)[C@@H](N)Cc1cnc[nH]1)[C@@H](C)O)[C@@H](C)O)C(=O)N[C@@H](CO)C(=O)N[C@@H](CCCCN)C(=O)N[C@@H](Cc1ccc(O)cc1)C(=O)N[C@@H](CC(C)C)C(=O)N[C@@H](CC(=O)O)C(=O)NC(C)(C)C(=O)N[C@@H](CCCNC(=N)N)C(=O)N[C@@H](CCCNC(=N)N)C(=O)N[C@@H](C)C(=O)N[C@@H](CCC(N)=O)C(=O)N[C@@H](CC(=O)O)C(=O)N[C@@H](Cc1ccccc1)C(=O)N[C@H](C(=O)N[C@@H](CCC(N)=O)C(=O)N[C@@H](Cc1c[nH]c2ccccc12)C(=O)N[C@@H](CC(C)C)C(=O)N[C@@H](CCSC)C(=O)N[C@@H](CC(N)=O)C(=O)N[C@H](C(=O)N[C@@H](CCCCNC(=O)CC[C@H](N)C(=O)O)C(N)=O)[C@@H](C)O)C(C)C)C(=O)O)C(=O)O`: the results for the EC50 (at Glucagon receptor; in test [3]) were 0.06 nM and 0.04 nM, respectively. In the test filed under Homo sapiens, the Ratio EC50 was found to be 1.5.

Regarding `CCCCCCCCCCCCCCCC(=O)N[C@@H](CCC(=O)N[C@@H](CCC(=O)NCCCC[C@H](NC(=O)[C@H](CC(=O)O)NC(=O)[C@H](CO)NC(=O)[C@@H](NC(=O)[C@H](Cc1ccccc1)NC(=O)[C@@H](NC(=O)CNC(=O)[C@H](CCC(N)=O)NC(=O)[C@@H](CO)NC(=O)[C@@H](N)Cc1cnc[nH]1)[C@@H](C)O)[C@@H](C)O)C(=O)N[C@@H](CO)C(=O)N[C@@H](CCCCN)C(=O)N[C@@H](Cc1ccc(O)cc1)C(=O)N[C@@H](CC(C)C)C(=O)N[C@@H](CC(=O)O)C(=O)N[C@@H](CCC(=O)O)C(=O)N[C@@H](CCCNC(=N)N)C(=O)N[C@@H](C)C(=O)N[C@@H](C)C(=O)N[C@@H](CCC(N)=O)C(=O)N[C@@H](CC(=O)O)C(=O)N[C@@H](Cc1ccccc1)C(=O)N[C@H](C(=O)N[C@@H](CCC(N)=O)C(=O)N[C@@H](Cc1c[nH]c2ccccc12)C(=O)N[C@@H](CC(C)C)C(=O)N[C@@H](CC(C)C)C(=O)N[C@@H](CC(=O)O)C(=O)N[C@H](C(N)=O)[C@@H](C)O)C(C)C)C(=O)O)C(=O)O`, the Ratio EC50 was 0.5 in the test filed under Macaca mulatta and 1.3 in the test filed under Homo sapiens. Also, the concentration for a half-maximal effect (EC50) at Glucagon receptor was 0.017 nM; in test [3] it was 0.013 nM; in test [1], 0.008 nM; in test [2], 0.015 nM.

With `CCCCCCCCCCCCCCCC(=O)N[C@@H](CCC(=O)N[C@@H](CCC(=O)NCCCC[C@H](NC(=O)[C@H](CC(=O)O)NC(=O)[C@H](CO)NC(=O)[C@@H](NC(=O)[C@H](Cc1ccccc1)NC(=O)[C@@H](NC(=O)CNC(=O)[C@H](CCC(N)=O)NC(=O)C(C)(C)NC(=O)[C@@H](N)Cc1cnc[nH]1)[C@@H](C)O)[C@@H](C)O)C(=O)N[C@@H](CO)C(=O)N[C@@H](CCCCN)C(=O)N[C@@H](Cc1ccc(O)cc1)C(=O)N[C@@H](CC(C)C)C(=O)N[C@@H](CC(=O)O)C(=O)NC(C)(C)C(=O)N[C@@H](CCCNC(=N)N)C(=O)N[C@@H](CCCNC(=N)N)C(=O)N[C@@H](C)C(=O)N[C@@H](CCC(N)=O)C(=O)N[C@@H](CC(=O)O)C(=O)N[C@@H](Cc1ccccc1)C(=O)N[C@H](C(=O)N[C@@H](CCC(N)=O)C(=O)N[C@@H](Cc1c[nH]c2ccccc12)C(=O)N[C@@H](CC(C)C)C(=O)N[C@@H](CC(C)C)C(=O)N[C@@H](CC(N)=O)C(=O)N[C@H](C(=O)N[C@@H](CCCCNC(=O)CC[C@H](N)C(=O)O)C(N)=O)[C@@H](C)O)C(C)C)C(=O)O)C(=O)O`, the EC50 at Glucagon receptor came to 0.006 nM; in test [3], 0.005 nM. For the same compound, in the test listed under Homo sapiens, the Ratio EC50 is 1.2.

In the case of `CCCCCCCCCCCCCCCC(=O)N[C@@H](CCC(=O)N[C@@H](CCC(=O)NCCCC[C@H](NC(=O)[C@H](CC(=O)O)NC(=O)[C@H](CO)NC(=O)[C@@H](NC(=O)[C@H](Cc1ccccc1)NC(=O)[C@@H](NC(=O)CNC(=O)[C@H](CCC(N)=O)NC(=O)C(C)(C)NC(=O)[C@@H](N)Cc1cnc[nH]1)[C@@H](C)O)[C@@H](C)O)C(=O)N[C@@H](CO)C(=O)N[C@@H](CCCCN)C(=O)N[C@@H](Cc1ccc(O)cc1)C(=O)N[C@@H](CC(C)C)C(=O)N[C@@H](CC(=O)O)C(=O)NC(C)(C)C(=O)N[C@@H](CCCNC(=N)N)C(=O)N[C@@H](CCCNC(=N)N)C(=O)N[C@@H](C)C(=O)N[C@@H](CCC(N)=O)C(=O)N[C@@H](CC(=O)O)C(=O)N[C@@H](Cc1ccccc1)C(=O)N[C@H](C(=O)N[C@@H](CCC(N)=O)C(=O)N[C@@H](Cc1c[nH]c2ccccc12)C(=O)N[C@@H](CC(C)C)C(=O)N[C@@H](CCSC)C(=O)N[C@@H](CC(N)=O)C(=O)N[C@H](C(N)=O)[C@@H](C)O)C(C)C)C(=O)O)C(=O)O`, the values for the EC50 (at Glucagon receptor; in test [3]) were 0.035 nM and 0.02 nM, respectively. Moreover, the Ratio EC50 in the test filed under Homo sapiens came out at 1.8.

As to GLUCAGON, the EC50 is 0.003 nM in test [1] and 0.038 nM in test [2].
